Earlier results, collected in patent publication EP2662403B1, “Stabilizing resin formulation of halogen-containing polymers” (Reagens S.p.A., priority 2012, dated 2013).
Read-outs that look alike come from different tables or passages of the source.

Details: indication of the basicity of the polyalkylpiperidine in the formulation, no method or source given

Row | pKb (Table 11) | pKb (Table 9) | pKb (Table 10) | pKb (Table 12) | Structure (SMILES)
1 | 5.5-8.5 |  |  |  | CCCCN(c1nc(NCCCN(CCN(CCCNc2nc(N(CCCC)C3CC(C)(C)N(C)C(C)(C)C3)nc(N(CCCC)C3CC(C)(C)N(C)C(C)(C)C3)n2)c2nc(N(CCCC)C3CC(C)(C)N(C)C(C)(C)C3)nc(N(CCCC)C3CC(C)(C)N(C)C(C)(C)C3)n2)c2nc(N(CCCC)C3CC(C)(C)N(C)C(C)(C)C3)nc(N(CCCC)C3CC(C)(C)N(C)C(C)(C)C3)n2)nc(N(CCCC)C2CC(C)(C)N(C)C(C)(C)C2)n1)C1CC(C)(C)N(C)C(C)(C)C1 [Chimassorb 119]
2 | 5.5-8.5 |  |  |  | CN1C(C)(C)CC(OC(=O)CCCCCCCCC(=O)OC2CC(C)(C)N(C)C(C)(C)C2)CC1(C)C [Tinuvin 765, bis(1,2,2,6,6-pentamethyl-4-piperidyl)sebacate]
3 | 4.3-7.4 | 4.3-7.4 | 4.3-7.4 | 4.3-7.4 | CC1(C)CC(OC(=O)CCCCCCCCC(=O)OC2CC(C)(C)NC(C)(C)C2)CC(C)(C)N1 [Tinuvin 770, bis(2,2,6,6,-tetramethyl-4-piperidyl)sebacate]
